Laboratory results: patent US6461997B1, “Triazole sulfones having herbicidal activity” (Monsanto Technology LLC, priority 1999, dated 2002)

Legend:
[1] = system: SOLNI (black nightshade); experiment: Pre-plant incorporated (PPI) herbicidal activity, warm season; type: in vivo, Solanum nigrum; conditions: PPI application
Summary of the method: (§1)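 Cool-season species were held at 18/13° C in greenhouse or growth chamber, warm-season ones at 30/21° C in greenhouse. Test compound had been sprayed onto cover soil, mixed, and applied over the seeds. Percent inhibition against untreated pots was recorded about 14 days post-treatment.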

[2] = system: AMARE (redroot pigweed); experiment: Pre-emergence herbicidal activity, warm season; type: in vivo, Amaranthus retroflexus; conditions: GR80 = lowest tested rate (300, 100, 30, 10 g/ha) with 80% or greater inhibition; approx. 14 days after treating; 30/21° C.
Summary of the method: (§2)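 GR80 values derive from percent inhibition relative to untreated plants, read roughly 14 days after sowing and pre-emergence soil-surface treatment (compound in 50:50 acetone/water; rates typically 10, 30, 100, 300 g/ha). Warm-season weeds grew at 30/21° C day/night, cool-season ones at 18/13° C; an asterisk marks activity without reaching 80% at the highest rate.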

[3] = system: rice (ORYSA); experiment: Selectivity test, PPI, warm season crop; type: in vivo, Oryza sativa; conditions: PPI application
Summary of the method: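 Percent inhibition relative to untreated controls, assessed roughly 14 days post-planting. Seeds were covered with a soil layer into which solvent-borne compound had been sprayed and mixed. Plants were then grown at 30/21° C. (warm season) or 18/13° C. (cool season) day/night regimes.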

[4] = system: POROL (common purslane); experiment: Pre-emergence herbicidal activity, warm season; type: in vivo, Portulaca oleracea; conditions: GR80 = lowest tested rate (300, 100, 30, 10 g/ha) with 80% or greater inhibition; approx. 14 days after treating; 30/21° C.
Summary of the method: as §2

[5] = system: ABUTH (velvetleaf); experiment: Pre-plant incorporated (PPI) herbicidal activity, warm season; type: in vivo, Abutilon theophrasti; conditions: PPI application
Summary of the method: as §1

[6] = system: LAMPU (purple deadnettle); experiment: Pre-plant incorporated (PPI) herbicidal activity, cool season; type: in vivo, Lamium purpureum; conditions: weed, PPI application
Summary of the method: as §1

[7] = system: STEME (common chickweed); experiment: Pre-emergence herbicidal activity, cool season; type: in vivo, Stellaria media; conditions: lowest tested rate with 80% or greater inhibition; rates 300, 100, 30, 10 g/ha; about 14 days
Summary of the method: as §2

[8] = system: SORVU (shattercane); experiment: Pre-plant incorporated (PPI) herbicidal activity, warm season; type: in vivo, Sorghum vulgare; conditions: PPI application
Summary of the method: as §1

[9] = system: ECHCG (barnyardgrass); experiment: as above; type: in vivo, Echinochloa crus-galli; conditions: PPI application
Summary of the method: as §1

CCN(CC)C(=O)n1cnc(S(=O)(=O)C(F)(F)Cl)n1 [Example 3]
Percent inhibition SOLNI ([1]; 30 g/ha): 70%
Percent inhibition SOLNI ([1]; 100 g/ha): 100%
Percent inhibition SOLNI ([1]; 300 g/ha): 100%
Percent inhibition SOLNI ([1]; 900 g/ha): 100%
Pre-emergence activity (GR80) AMARE [2]: 100 g/ha
Percent inhibition ORYSA ([3]; 30 g/ha): 0%
Percent inhibition ORYSA ([3]; 100 g/ha): 0%
Percent inhibition ORYSA ([3]; 300 g/ha): 20%
Percent inhibition ORYSA ([3]; 900 g/ha): 70%
Pre-emergence activity (GR80) POROL [4]: 100 g/ha
Percent inhibition ABUTH ([5]; 30 g/ha): 0%
Percent inhibition ABUTH ([5]; 100 g/ha): 0%
Percent inhibition ABUTH ([5]; 300 g/ha): 30%
Percent inhibition ABUTH ([5]; 900 g/ha): 60%
Percent inhibition LAMPU ([6]; 30 g/ha): 60%
Percent inhibition LAMPU ([6]; 100 g/ha): 95%
Percent inhibition LAMPU ([6]; 300 g/ha): 100%
Percent inhibition LAMPU ([6]; 900 g/ha): 100%
Pre-emergence activity GR80, STEME [7]: 30 g/ha
Percent inhibition SORVU ([8]; 30 g/ha): 70%
Percent inhibition SORVU ([8]; 100 g/ha): 95%
Percent inhibition SORVU ([8]; 300 g/ha): 100%
Percent inhibition SORVU ([8]; 900 g/ha): 100%
Percent inhibition ECHCG ([9]; 30 g/ha): 100%
Percent inhibition ECHCG ([9]; 100 g/ha): 99%
Percent inhibition ECHCG ([9]; 300 g/ha): 100%
Percent inhibition ECHCG ([9]; 900 g/ha): 100%
